Experimental data published in patent US10202361B2, “Pyridazinones as herbicides” (E I DU PONT DE NEMOURS AND COMPANY, priority 2014, dated 2019).

Columns and labels:
Type in all cases: in vivo
[1] = test system: galium (catchweed bedstraw, Galium aparine); experiment: Test D pre-/postemergence controlled growth environment herbicide test; details: scale 0 to 100
Source text: (§1) Seeds of plant species selected from bluegrass (annual bluegrass, Poa annua), blackgrass (Alopecurus myosuroides), canarygrass (Phalaris minor), chickweed (common chickweed, Stellaria media), galium (catchweed bedstraw, Galium aparine), downy bromegrass (Bromus tectorum), field poppy (Papaver rhoeas), field violet (Viola arvensis), foxtail, green (green foxtail, Setaria viridis), deadnettle (henbit deadnettle, Lamium amplexicaule), ryegrass, Italian (Italian ryegrass, Lolium multiflorum), kochia (Kochia scoparia), lambsquarters (Chenopodium album), oilseed rape (Brassica napus), pigweed (Amaranthus retroflexus), chamomile (scentless chamomile, Matricaria inodora), Russian thistle (Salsola kali), speedwell (bird's-eye speedwell, Veronica persica), barley, spring (spring barley, Hordeum vulgare), wheat, spring (spring wheat, Triticum aestivum), buckwheat, wild (wild buckwheat, Polygonum convolvulus), mustard, wild (wild mustard, Sinapis arvensis), oat, wild (wild oat, Avena fatua), radish, wild (wild radish, Raphanus raphanistrum), windgrass (Apera spica-venti), barley, winter (winter barley, Hordeum vulgare), and wheat, winter (winter wheat, Triticum aestivum) were planted into a silt loam soil and treated preemergence with test chemicals formulated in a non-phytotoxic solvent mixture which included a surfactant.
(§2) At the same time, these species were planted in pots containing Redi-Earth® planting medium (Scotts Company, 14111 Scottslawn Road, Marysville, Ohio 43041) comprising spaghnum peat moss, vermiculite, wetting agent and starter nutrients and treated with postemergence applications of the test chemicals formulated in the same manner. Plants ranged in height from 2 to 18 cm (1- to 4-leaf stage). Treated plants and controls were maintained in a controlled growth environment for 14 to 21 d after which time all species were compared to controls and visually evaluated. Plant response ratings, summarized in Table D, are based on a scale of 0 to 100 where 0 is no effect and 100 is complete control. A dash (-) response means no test result.

[2] = test system: radish, wild (wild radish, Raphanus raphanistrum); experiment: as above; details: scale 0 to 100
Source text: as §1, §2

[3] = test system: chamomile (scentless chamomile, Matricaria inodora); experiment: as above; details: scale 0 to 100
Source text: as §1, §2

[4] = test system: pigweed (Amaranthus retroflexus); experiment: as above; details: scale 0 to 100
Source text: as §1, §2

[5] = test system: blackgrass (Alopecurus myosuroides); experiment: as above; details: scale 0 to 100
Source text: as §1, §2

[6] = test system: field poppy (Papaver rhoeas); experiment: as above; details: scale 0 to 100
Source text: as §1, §2

[7] = test system: chickweed (common chickweed, Stellaria media); experiment: as above; details: scale 0 to 100
Source text: as §1, §2

[8] = test system: windgrass (Apera spica-venti); experiment: as above; details: scale 0 to 100
Source text: as §1, §2

[9] = test system: wheat, winter (winter wheat, Triticum aestivum); experiment: as above; details: scale 0 to 100
Source text: as §1, §2

[10] = test system: buckwheat, wild (wild buckwheat, Polygonum convolvulus); experiment: as above; details: scale 0 to 100
Source text: as §1, §2

[11] = test system: nutsedge, yellow (yellow nutsedge, Cyperus esculentus); experiment: Test E pre-/postemergence greenhouse herbicide test; details: Preemergence, scale 0 to 100

Work on Cc1cc(=O)n(-c2ccc(F)cc2)nc1Oc1ccnc(C(F)(F)F)c1 [Compound 14, 2-(4-fluorophenyl)-5-methyl-6-[[2-(trifluoromethyl)-4-pyridinyl]oxy]-3 (2H)-pyridazinone] yielded a Plant response rating ([1]; Postemergence, 16 g ai/ha) of 60, a Plant response rating ([1]; Postemergence, 31 g ai/ha) of 60 and a Plant response rating ([1]; Postemergence, 62 g ai/ha) of 60. For the same molecule, the Plant response rating ([1]; Postemergence, 125 g ai/ha) was 65, the Plant response rating ([1]; Postemergence, 250 g ai/ha) was 75 and the Plant response rating ([1]; Preemergence, 16 g ai/ha) was 0. For the same molecule, the Plant response rating ([1]; Preemergence, 31 g ai/ha) was 0, the Plant response rating ([1]; Preemergence, 62 g ai/ha) was 0 and the Plant response rating ([1]; Preemergence, 125 g ai/ha) was 5. It also gave a Plant response rating ([2]; Postemergence, 16 g ai/ha) of 40, a Plant response rating ([2]; Postemergence, 31 g ai/ha) of 80 and a Plant response rating ([2]; Postemergence, 62 g ai/ha) of 70. It also gave a Plant response rating ([2]; Postemergence, 125 g ai/ha) of 75, a Plant response rating ([2]; Postemergence, 250 g ai/ha) of 80 and a Plant response rating ([2]; Preemergence, 16 g ai/ha) of 100. For the same molecule, the Plant response rating ([2]; Preemergence, 31 g ai/ha) was 100, the Plant response rating ([2]; Preemergence, 62 g ai/ha) was 100 and the Plant response rating ([2]; Preemergence, 125 g ai/ha) was 100. For the same molecule, the Plant response rating ([2]; Preemergence, 250 g ai/ha) was 100, the Plant response rating ([3]; Postemergence, 16 g ai/ha) was 5 and the Plant response rating ([3]; Postemergence, 31 g ai/ha) was 10. For the same molecule, the Plant response rating ([3]; Postemergence, 62 g ai/ha) was 10, the Plant response rating ([3]; Postemergence, 125 g ai/ha) was 20 and the Plant response rating ([3]; Postemergence, 250 g ai/ha) was 25. For the same molecule, the Plant response rating ([3]; Preemergence, 16 g ai/ha) was 5, the Plant response rating ([3]; Preemergence, 31 g ai/ha) was 10 and the Plant response rating ([3]; Preemergence, 62 g ai/ha) was 25. It also gave a Plant response rating ([3]; Preemergence, 125 g ai/ha) of 85, a Plant response rating ([3]; Preemergence, 250 g ai/ha) of 80 and a Plant response rating ([4]; Postemergence, 16 g ai/ha) of 60. The Plant response rating ([4]; Postemergence, 31 g ai/ha) was 60, the Plant response rating ([4]; Postemergence, 62 g ai/ha) was 70 and the Plant response rating ([4]; Postemergence, 125 g ai/ha) was 75. The Plant response rating ([4]; Postemergence, 250 g ai/ha) was 75, the Plant response rating ([4]; Preemergence, 16 g ai/ha) was 35 and the Plant response rating ([4]; Preemergence, 31 g ai/ha) was 95. The Plant response rating ([4]; Preemergence, 62 g ai/ha) was 75, the Plant response rating ([4]; Preemergence, 125 g ai/ha) was 100 and the Plant response rating ([4]; Preemergence, 250 g ai/ha) was 100. For the same molecule, the Plant response rating ([5]; Postemergence, 16 g ai/ha) was 5, the Plant response rating ([5]; Postemergence, 31 g ai/ha) was 10 and the Plant response rating ([5]; Postemergence, 62 g ai/ha) was 10. The Plant response rating ([5]; Postemergence, 125 g ai/ha) was 10, the Plant response rating ([5]; Postemergence, 250 g ai/ha) was 10 and the Plant response rating ([5]; Preemergence, 16 g ai/ha) was 0. It also gave a Plant response rating ([5]; Preemergence, 31 g ai/ha) of 0, a Plant response rating ([5]; Preemergence, 62 g ai/ha) of 10 and a Plant response rating ([5]; Preemergence, 125 g ai/ha) of 20. For the same molecule, the Plant response rating ([5]; Preemergence, 250 g ai/ha) was 70, the Plant response rating ([6]; Postemergence, 16 g ai/ha) was 75 and the Plant response rating ([6]; Postemergence, 31 g ai/ha) was 20. For the same molecule, the Plant response rating ([6]; Postemergence, 62 g ai/ha) was 75, the Plant response rating ([6]; Postemergence, 125 g ai/ha) was 50 and the Plant response rating ([6]; Postemergence, 250 g ai/ha) was 80. The Plant response rating ([6]; Preemergence, 16 g ai/ha) was 95, the Plant response rating ([6]; Preemergence, 31 g ai/ha) was 100 and the Plant response rating ([6]; Preemergence, 62 g ai/ha) was 100. It also gave a Plant response rating ([6]; Preemergence, 125 g ai/ha) of 100, a Plant response rating ([6]; Preemergence, 250 g ai/ha) of 100 and a Plant response rating ([7]; Postemergence, 16 g ai/ha) of 50. For the same molecule, the Plant response rating ([7]; Postemergence, 31 g ai/ha) was 60, the Plant response rating ([7]; Postemergence, 62 g ai/ha) was 45 and the Plant response rating ([7]; Postemergence, 125 g ai/ha) was 70. The Plant response rating ([7]; Postemergence, 250 g ai/ha) was 90, the Plant response rating ([7]; Preemergence, 16 g ai/ha) was 10 and the Plant response rating ([7]; Preemergence, 125 g ai/ha) was 100. For the same molecule, the Plant response rating ([7]; Preemergence, 250 g ai/ha) was 95, the Plant response rating ([8]; Postemergence, 16 g ai/ha) was 5 and the Plant response rating ([8]; Postemergence, 31 g ai/ha) was 5. For the same molecule, the Plant response rating ([8]; Postemergence, 62 g ai/ha) was 10, the Plant response rating ([8]; Postemergence, 125 g ai/ha) was 10 and the Plant response rating ([8]; Postemergence, 250 g ai/ha) was 60. For the same molecule, the Plant response rating ([8]; Preemergence, 16 g ai/ha) was 10, the Plant response rating ([8]; Preemergence, 31 g ai/ha) was 5 and the Plant response rating ([8]; Preemergence, 62 g ai/ha) was 5. It also gave a Plant response rating ([8]; Preemergence, 125 g ai/ha) of 35, a Plant response rating ([8]; Preemergence, 250 g ai/ha) of 65 and a Plant response rating ([9]; Postemergence, 16 g ai/ha) of 5. The Plant response rating ([9]; Postemergence, 31 g ai/ha) was 10, the Plant response rating ([9]; Postemergence, 62 g ai/ha) was 15 and the Plant response rating ([9]; Postemergence, 125 g ai/ha) was 15. The Plant response rating ([9]; Postemergence, 250 g ai/ha) was 15, the Plant response rating ([9]; Preemergence, 16 g ai/ha) was 0 and the Plant response rating ([9]; Preemergence, 31 g ai/ha) was 5. It also gave a Plant response rating ([9]; Preemergence, 62 g ai/ha) of 5, a Plant response rating ([9]; Preemergence, 125 g ai/ha) of 5 and a Plant response rating ([9]; Preemergence, 250 g ai/ha) of 10. It also gave a Plant response rating ([10]; Postemergence, 16 g ai/ha) of 55, a Plant response rating ([10]; Postemergence, 31 g ai/ha) of 55 and a Plant response rating ([10]; Postemergence, 62 g ai/ha) of 75. For the same molecule, the Plant response rating ([10]; Postemergence, 125 g ai/ha) was 70, the Plant response rating ([10]; Postemergence, 250 g ai/ha) was 70 and the Plant response rating ([10]; Preemergence, 16 g ai/ha) was 15. For the same molecule, the Plant response rating ([10]; Preemergence, 31 g ai/ha) was 15, the Plant response rating ([10]; Preemergence, 62 g ai/ha) was 25 and the Plant response rating ([10]; Preemergence, 125 g ai/ha) was 25. It also gave a Plant response rating ([10]; Preemergence, 250 g ai/ha) of 100.
For COc1cc(=O)n(-c2ccc(C(F)(F)F)cc2)nc1Cc1ccnc(C(F)(F)F)c1 [Compound 16, 5-methoxy-2-[4-(trifluoromethyl)phenyl]-6-[[2-(trifluoromethyl)-4-pyridinyl]methyl]-3(2H)-pyridazinone], the “Plant response rating: Nutsedge, Yellow” value ([11]; 62 g ai/ha) was 20, the “Plant response rating: Nutsedge, Yellow” value ([11]; 125 g ai/ha) was 20 and the “Plant response rating: Nutsedge, Yellow” value ([11]; 250 g ai/ha) was 40.
